These results are taken from US6919378B2, “Pharmaceutical solutions of modafinil compounds” (Cephalon, Inc., priority 2000, dated 2005).

In brackets after ≈: the same amount, converted by molar mass.

Data set [1] can be described thus: Solubility of modafinil in solvent composition, measured by HPLC. The class given is physicochemical. The settings on record: PEG-400:benzyl alcohol 95:5 (v/v) solvent mixture, organic solvent or mixture, thermodynamic from solid, in 95:5 (v/v) PEG-400:benzyl alcohol, cooled to room temperature, filtered. The procedure: The following HPLC method may be used to measure the modafinil compound content in the compositions. Filter a solution saturated with a modafinil compound through a 1.2 μm syringe filter. Dilute 10 μL of the clear solution to 1 mL with 990 μL of dimethylsulfoxide (Fischer Certified ACS grade). Take 10 μL of the diluted solution for the HPLC analysis, with the following representative column conditions: • Flow rate: 1.2 mL/min. • Column: ODS, 4.6×20 mm, Column Temp: 30° C. • Mobil phase: 80% (65% Acetonitrile/35% 1M phosphate buffer) • 20% water • Analysis time: 5 minutes • Wavelength: 222 nanometers
Concentration can be calculated by comparison to area from a modafinil compound standard used at 0.4 mg/mL with appropriate dilution.
A mixture of 95 mL of PEG-400 and 5 ml of benzyl alcohol was stirred at room temperature until homogeneous. To a separate container, 0.1 gram of modafinil was weighed and 1 mL of the mixed solvent was added with stirring and heating to 55-60° C. The solution was allowed to cool to room temperature and any undissolved solid was removed by filtering the solution. In the case of a viscous solution or a solution that solidifies at room temperature, warming until a freely flowing solution was obtained and then filtration gave a solution free of particulate matter.

The test system of another data set is mice. The settings on record: single administration; cited from earlier work.
In another data set the test system is monkeys. The settings on record: single administration; cited from earlier work.
Data set [2] can be described thus: Water and lipid solubility (observation).

Consider `NC(=O)C[S+]([O-])C(c1ccccc1)c1ccccc1` (centres unmarked) [modafinil, 2-(benzhydryl-sulfinyl)acetamide], for which the solubility (usually the concentration that dissolves in the medium under given conditions) in data set [1] is 61 mg/mL (≈ 223 mM). In addition, the locomotor activity result with mice was “increased locomotor activity”. In addition, in the data set on monkeys, the nocturnal activity entry is “increased nocturnal activity”. Moreover, in data set [2], the lipid solubility entry was “very poor” and the water solubility entry is “very poor”.
